Reference: patent publication US8685970B2, “Quinolines and related analogs as sirtuin modulators” (GlaxoSmithKline, LLC, priority 2008, dated 2014)

Molecular target: T1, SIRT1 (Homo sapiens, UniProt Q96EB6)
T1 sequence (Q96EB6 1-747): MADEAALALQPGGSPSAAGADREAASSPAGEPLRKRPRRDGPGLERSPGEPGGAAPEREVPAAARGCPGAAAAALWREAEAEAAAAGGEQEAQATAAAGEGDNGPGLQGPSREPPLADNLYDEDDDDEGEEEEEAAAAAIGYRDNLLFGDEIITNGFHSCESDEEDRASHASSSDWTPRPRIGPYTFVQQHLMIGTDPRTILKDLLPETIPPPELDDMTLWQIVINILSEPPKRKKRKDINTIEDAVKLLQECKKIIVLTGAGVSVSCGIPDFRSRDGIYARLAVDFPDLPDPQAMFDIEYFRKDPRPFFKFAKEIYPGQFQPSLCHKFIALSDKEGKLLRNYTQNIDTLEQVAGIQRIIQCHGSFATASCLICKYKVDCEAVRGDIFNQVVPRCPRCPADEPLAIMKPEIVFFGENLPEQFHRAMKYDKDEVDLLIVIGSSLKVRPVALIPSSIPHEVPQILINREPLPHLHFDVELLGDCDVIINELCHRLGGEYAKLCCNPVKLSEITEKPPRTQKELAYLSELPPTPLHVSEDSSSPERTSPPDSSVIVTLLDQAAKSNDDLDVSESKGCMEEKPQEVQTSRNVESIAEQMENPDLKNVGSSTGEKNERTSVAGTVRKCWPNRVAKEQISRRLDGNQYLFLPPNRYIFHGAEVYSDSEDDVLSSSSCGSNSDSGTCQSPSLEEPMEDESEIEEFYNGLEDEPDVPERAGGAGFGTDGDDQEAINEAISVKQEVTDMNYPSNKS
Assay: Mass spectrometry based SIRT1 deacetylation assay (activation)
Assay type: biochemical
Details: 10 nM SIRT1, 0.5 μM peptide substrate, 120 μM βNAD+, 25 min at 25° C.
In short: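 Activation reported as EC1.5, the compound concentration producing 150% of DMSO-control deacetylation, plus maximum fold activation. Readout is mass-spectrometric ratio of deacetylated to acetylated p53-based peptide (0.5 μM) after 25 min, 25 °C, with 120 μM βNAD+ and 10 nM His-tagged human SIRT1, pH 8.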

| Structure (SMILES) | EC1.5 (concentration of test compound that results in 150% activation of SIRT1) | % Fold Act. (percent maximum fold activation) |
| --- | --- | --- |
| O=C(Nc1cccc2ccc(-c3cccc(OC(F)(F)F)c3)nc12)c1ccccc1 [Compound 19] | C (EC1.5>25 uM) | – |
| O=C(Nc1cccc2ccc(-c3ccccc3)nc12)c1cccc(OC(F)(F)F)c1 [Compound 6] | C (EC1.5>25 uM) | – |
| O=C(Nc1ncc(CN2CCCC2)s1)c1cccc2ccc(-c3cccc(C(F)F)c3)nc12 [Compound 262] | B (EC1.5 1-25 uM) | A (Fold activation >200%) |
| O=C(Nc1cccc2ccc(-c3cccc(C(F)(F)F)c3)nc12)c1cccs1 [Compound 204] | B (EC1.5 1-25 uM) | B (Fold Activation <200%) |
| CN1CCN(Cc2cccc(C(=O)Nc3cccc4ccc(-c5cccc(C(F)(F)F)c5)nc34)c2)CC1 [Compound 216] | A (EC1.5<1.0 uM) | A (Fold activation >200%) |
| O=C(Nc1nccs1)c1cccc2ccc(-c3ccccc3C(F)(F)F)nc12 [Compound 84] | B (EC1.5 1-25 uM) | A (Fold activation >200%) |
| O=C(Nc1nc2ccccc2s1)c1cccc2ccc(-c3cccc(C(F)(F)F)c3)nc12 [Compound 55] | A (EC1.5<1.0 uM) | A (Fold activation >200%) |
| O=C(Nc1cccc2ccc(-c3cccc(O)c3)nc12)c1cscn1 [Compound 185] | B (EC1.5 1-25 uM) | B (Fold Activation <200%) |
| O=C(Nc1nc(CN2CCCC2)cs1)c1cccc2ccc(-c3cccc(OC(F)(F)F)c3)nc12 [Compound 148] | A (EC1.5<1.0 uM) | A (Fold activation >200%) |
| O=C(Nc1cccc2ccc(-c3cccc(C(F)(F)F)c3)nc12)c1csc(-c2ccccc2)n1 [Compound 206] | C (EC1.5>25 uM) | – |
| O=C(Nc1cccc2ccc(-c3cccc(CN4CCCC4)c3)nc12)c1cscn1 [Compound 119] | A (EC1.5<1.0 uM) | A (Fold activation >200%) |
| O=C(NC1CCCC1)c1cccc2ccc(-c3cccc(C(F)(F)F)c3)nc12 [Compound 40] | C (EC1.5>25 uM) | – |

The next lines start with the values.

| EC1.5 (concentration of test compound that results in 150% activation of SIRT1) | % Fold Act. (percent maximum fold activation) | Structure (SMILES) |
| --- | --- | --- |
| B (EC1.5 1-25 uM) | A (Fold activation >200%) | O=C(Nc1ncc(CN2CCCC2)s1)c1cccc2ccc(-c3cccnc3)nc12 [Compound 218] |
| B (EC1.5 1-25 uM) | A (Fold activation >200%) | Cc1nc(NC(=O)c2cccc3ccc(-c4cccnc4)nc23)sc1C [Compound 226] |
| C (EC1.5>25 uM) | – | Cc1nnc(NC(=O)c2cccc3ccc(-c4cccnc4)nc23)o1 [Compound 264] |
| C (EC1.5>25 uM) | – | Cc1nnc(NC(=O)c2cccc3ccc(-c4cccnc4)nc23)s1 [Compound 235] |
| A (EC1.5<1.0 uM) | A (Fold activation >200%) | O=C(Nc1cccc2ccc(-c3ccccc3)nc12)c1cnccn1 [Compound 3] |
| A (EC1.5<1.0 uM) | A (Fold activation >200%) | Cc1nc(NC(=O)c2cccc3ccc(-c4cccc(N5CCOCC5)c4)nc23)sc1C [Compound 240] |
| A (EC1.5<1.0 uM) | A (Fold activation >200%) | O=C(Nc1cccnc1)c1ccc(F)c2ccc(-c3cccc(C(F)(F)F)c3)nc12 [Compound 67] |
| A (EC1.5<1.0 uM) | A (Fold activation >200%) | O=C(Nc1ncccn1)c1cccc2ccc(-c3cccc(C(F)(F)F)c3)nc12 [Compound 48] |
| C (EC1.5>25 uM) | – | O=C(Nc1ccccn1)c1cccc2cnc(-c3cccnc3)nc12 [Compound 298] |
